Some test systems named below: RXF 393 renal; SK-OV-3 ovarian; MCF7 breast; PC-3 prostate; SF-295 CNS; TK-10 renal; HCT-15 colon; SK-MEL-2 melanoma; UACC-257 melanoma; HOP-62 NSCLC.
Common to all, as to experiment: growth of human tumour cells (NCI), 48 h

Values joined by “and” are separate entries in the source; they are usually repeats but may differ in a detail not shown here. Equal entries are not always repeated.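 1) Cells in 96-well plates. 2) Compound, 48 h, 5 concentrations. 3) Linear interpolation between surrounding doses. 4) Unreached endpoint = highest concentration. GI50: concentration for 50% inhibition of growth. TGI: total growth inhibition.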

This is an account of results in PubChem BioAssay (NCI).

With `CCCC(=O)OC(OC(=O)CCC)c1ccc([N+](=O)[O-])o1`, the TGI with RXF 393 renal is 54 µM; with SK-OV-3 ovarian, over 100 µM; with MCF7 breast, 35.4 µM; with PC-3 prostate, over 100 µM; in the test with SF-295 CNS it was over 100 µM; in the test with TK-10 renal it was 53.5 µM. The TGI in the test on HCT-15 colon is 43.4 µM; in the test with SK-MEL-2 melanoma it was 86.2 µM; with UACC-257 melanoma, 51.9 µM; in the test with HOP-62 NSCLC, over 100 µM.

`CS(=O)(=O)CCNCc1ccoc1-c1ccc2ncnc(Nc3ccc(OCc4ccccc4)cc3)c2c1`: the GI50 in the test on RXF 393 renal was 7.25 µM; with SK-OV-3 ovarian it was 1.5 µM; in the test on MCF7 breast, 8.54 µM; in the test with PC-3 prostate, over 25 µM; in the test on SF-295 CNS, over 25 µM; in the test with TK-10 renal it was 1.38 µM. The GI50 in the test on HCT-15 colon, with SK-MEL-2 melanoma, with UACC-257 melanoma and in the test with HOP-62 NSCLC was over 25 µM each time. The TGI with RXF 393 renal, in the test on SK-OV-3 ovarian, in the test on MCF7 breast, in the test on PC-3 prostate, in the test with SF-295 CNS and in the test on TK-10 renal was over 25 µM in each case. Also, the TGI in the test on HCT-15 colon, with SK-MEL-2 melanoma, with UACC-257 melanoma and in the test on HOP-62 NSCLC was over 25 µM each time.

For the compound `CC1=C(SCCC(=O)OC(C[Se]C2=C(C)C(=O)c3ccccc3C2=O)C(=O)NC(C)(C)C)C(=O)c2ccccc2C1=O` (centres undefined), the GI50 in the test on RXF 393 renal is 1.73 µM; in the test with SK-OV-3 ovarian, 1.43 µM; in the test on MCF7 breast, 1.62 µM; in the test on PC-3 prostate, 0.457 µM; in the test on SF-295 CNS, 0.315 µM; with TK-10 renal, 2.52 µM. The GI50 in the test with HCT-15 colon is 1.47 µM; in the test on SK-MEL-2 melanoma it was 2.04 µM; in the test with UACC-257 melanoma it was 1.76 µM; with HOP-62 NSCLC, 0.32 µM. The TGI with RXF 393 renal came to 3.33 µM; in the test on SK-OV-3 ovarian, 2.74 µM; in the test with MCF7 breast it was 3.65 µM; with PC-3 prostate, 1.69 µM; in the test on SF-295 CNS, 1.21 µM; in the test on TK-10 renal, 4.1 µM. Also, the TGI with HCT-15 colon amounted to 3.11 µM; in the test on SK-MEL-2 melanoma, 3.65 µM; in the test with UACC-257 melanoma, 3.2 µM; in the test on HOP-62 NSCLC, 1.68 µM.

Regarding `Cn1cc(-c2csc(-c3cn(C(=O)OC(C)(C)C)c4ccccc34)n2)c2cccnc21`, the GI50 in the test with RXF 393 renal was 2.26 µM; in the test with SK-OV-3 ovarian, 10.1 µM; with MCF7 breast, 2.85 µM; in the test on PC-3 prostate, 4.89 µM; in the test with SF-295 CNS it was 3.42 µM; with TK-10 renal it was 15.9 µM. The GI50 is 6.35 µM in the test on HCT-15 colon, 13.8 µM in the test with SK-MEL-2 melanoma, 8.97 µM in the test on UACC-257 melanoma and 12.1 µM with HOP-62 NSCLC. Moreover, the TGI with RXF 393 renal came out at 9.29 µM; in the test on SK-OV-3 ovarian, 48.2 µM; in the test with MCF7 breast, 16.3 µM; in the test with PC-3 prostate, 24.4 µM; in the test on SF-295 CNS, 14.5 µM; with TK-10 renal, 42.2 µM. The TGI with HCT-15 colon is 37.7 µM; in the test with SK-MEL-2 melanoma, 36.3 µM; with UACC-257 melanoma, 23.6 µM; in the test with HOP-62 NSCLC, 30.4 µM.

For the compound `COC(=O)Nc1nc2ccc(C(=O)c3cccs3)cc2[nH]1`, the TGI with RXF 393 renal was 1.36 µM; in the test on MCF7 breast, 46.2 µM and > 100 µM; in the test on PC-3 prostate it was 14.2 µM and > 100 µM; in the test on TK-10 renal, 60.4 µM and > 100 µM; with SK-MEL-2 melanoma, 12.1 µM and > 100 µM; in the test with UACC-257 melanoma, over 100 µM. Besides, the TGI in the test on HOP-62 NSCLC was 32.8 µM and > 100 µM. Also, the GI50 with SK-OV-3 ovarian was 0.347 µM; in the test with MCF7 breast, 0.0618 µM; in the test with PC-3 prostate, 0.246 µM; in the test on SF-295 CNS, 0.109 µM; with HCT-15 colon, 0.106 µM; in the test with SK-MEL-2 melanoma, 20 µM. In addition, the GI50 is over 100 µM in the test with UACC-257 melanoma and 1.11 µM in the test with HOP-62 NSCLC.

As for `NC1=C(O)C(=O)C(c2c[nH]c3ccc(OCc4ccccc4)cc23)O1` (centres undefined), the TGI with RXF 393 renal, in the test with SK-OV-3 ovarian, in the test on MCF7 breast, in the test with PC-3 prostate, with SF-295 CNS and with TK-10 renal was over 100 µM throughout. Further, the TGI with HCT-15 colon, in the test with SK-MEL-2 melanoma, in the test on UACC-257 melanoma and in the test with HOP-62 NSCLC was over 100 µM each time.

With `O=C(/C=C/c1ccc(Cl)cc1Cl)c1ccc(Cl)cc1Cl`, the GI50 with RXF 393 renal was 16.7 µM; with SK-OV-3 ovarian, 37.8 µM; in the test on MCF7 breast, 7.88 µM; in the test with PC-3 prostate it was 24.4 µM; with SF-295 CNS it was 18.7 µM; in the test on TK-10 renal, 28 µM. The GI50 is 14.4 µM with HCT-15 colon, 1.63 µM in the test on SK-MEL-2 melanoma, 21.7 µM in the test with UACC-257 melanoma and 26.1 µM in the test on HOP-62 NSCLC. Further, the TGI in the test on RXF 393 renal was 36.3 µM; with SK-OV-3 ovarian, over 100 µM; in the test with MCF7 breast it was over 24 µM; in the test with PC-3 prostate, 64.3 µM; in the test with SF-295 CNS, 47.7 µM; with TK-10 renal, over 73.2 µM. In addition, the figures for the TGI in the test with HCT-15 colon, with UACC-257 melanoma and with HOP-62 NSCLC were 31 µM, 55.3 µM and over 68.9 µM, respectively.

On to `COc1ccc(/C=C/C(=O)c2ccc(Nc3nc(Nc4ccc(F)cc4)nc(Nc4ccc(F)cc4)n3)cc2)cc1`, for which the GI50 in the test on RXF 393 renal is 3.09 µM; in the test with SK-OV-3 ovarian, 17.1 µM; in the test on MCF7 breast it was 5.59 µM; in the test with PC-3 prostate, 5.06 µM; in the test on SF-295 CNS, 14.2 µM; with TK-10 renal it was 11.8 µM. Further, the GI50 in the test with HCT-15 colon is 14.4 µM; with SK-MEL-2 melanoma it was 14.1 µM; in the test on UACC-257 melanoma, 19 µM; in the test on HOP-62 NSCLC, 13.1 µM. Moreover, the TGI is 14.2 µM in the test on RXF 393 renal; 88.4 µM in the test on SK-OV-3 ovarian; 34.3 µM in the test on MCF7 breast; 21.4 µM with PC-3 prostate; 42.7 µM in the test with SF-295 CNS; 42.7 µM with TK-10 renal. Further, the TGI in the test with HCT-15 colon is over 100 µM; with SK-MEL-2 melanoma, 34.6 µM; in the test with UACC-257 melanoma, 76.4 µM; with HOP-62 NSCLC, 30 µM.

With `CCN(CC)CCNc1ccc([N+](=O)[O-])c2nc3ccc(OC)cc3c(N)c12`, the TGI in the test on RXF 393 renal is 2.58 µM; in the test on SK-OV-3 ovarian, 3.58 µM; in the test with MCF7 breast, 1.31 µM; in the test on PC-3 prostate, 2.78 µM; with SF-295 CNS, 2.96 µM; in the test with TK-10 renal, 2.93 µM. Further, the TGI stood at 2.68 µM with HCT-15 colon, 3.22 µM in the test with SK-MEL-2 melanoma, 3.97 µM in the test on UACC-257 melanoma and 3.74 µM in the test on HOP-62 NSCLC.
